Active and inactive are the calls of the source. The rule behind the calls is not given here.
Key:
[1] = Effect for methylthio adduct formation at 1 mM concentration; format: functional
Cricetulus griseus [2] = species on record: Cricetulus griseus; test: Effect of the compound on hamster hepatic N-arylhydroxamic acid N,O-acyltransferase activity
[3] = AHAT-catalyzed transacetylation rate at 0.5-1.0 concentration; No effect; format: functional
[4] = Effect for methylthio adduct formation at 2 mM concentration; format: functional
Cricetinae gen. sp. [5] = test: Effect for methylthio adduct formation in presence of 0.1 mM N-hydroxy-4-aminobiphenyl and 10 mM N-acetylmethioninein hamster hepatic AHAT preparation at 30 min; format: functional, Cricetulus griseus
Rattus norvegicus = species on record: Rattus norvegicus; test: Transacetylation rate in rat hepatic AHAT preparation; format: functional
Cricetinae gen. sp. [6] = test: Transacetylation rate in hamster hepatic AHAT preparation; format: functional, Cricetulus griseus
[7] = Compound inhibit the AHAT-catalyzed transacetylation activity; Active; format: functional
[8] = AHAT-catalyzed transacetylation rate at 0.5-1.0 concentration; format: functional
Cricetulus griseus [9] = species on record: Cricetulus griseus; test: Effect of the compound on hamster hepatic N,O-acyltransferase (AHAT) activity; format: functional

Activity (Cricetulus griseus [2])	SMILES	Reduction [1]	Reduction [4]	Activity (Rattus norvegicus)	further results
< 1%	CC(=O)N(O)C1CCC(c2ccccc2)CC1 (stereo unspecified)	13%	23%	–	Activity [3]: inactive
–	CC(=O)N(O)c1ccc(-c2ccccc2)cc1	–	–	4.99 nM/min	Activity (Cricetinae gen. sp. [5]): 120 nM; Activity (Cricetinae gen. sp. [6]): 9.14 nM/min; Activity [7]: Active; Activity [8]: 10%
–	CC(=O)N(O)CCc1ccccc1	8%	17%	–	Activity (Cricetulus griseus [9]): < 1%
< 1%	CC(=O)N(O)CCCCc1ccccc1	–	–	0.73 nmol/mg/min	–
< 1%	CC(=O)N(O)Cc1ccccc1	–	–	–	–
< 1%	CC(=O)N(O)CCCc1ccccc1	–	–	–	–
